These results are taken from patent US11491100B2, “Dermal composition comprising chelator and base” (Primal Therapies, Inc., priority 2013, dated 2022).

A short description of one experiment: Ranking of candidate chelator and base agents by potency score. Set-up: key: 1 = most desired, 3 = least desired.
Settings: not given
The source says: Methods of selecting base and chelator compositions depend on use. Compositions may be determined by ranking base, chelator and enhancer agents, from most desired to least desired, for multiple parameters such as safety, solubility, compatibility, pH, potency, taste, consistency, smell and others.
Non-toxic chelator and base compositions may be ranked according to the desired parameters of potency and approved-for-oral-consumption. A desired parameter such as potency for a candidate chelator or base may be given a score of “1” for most desired and a score of “3” for least desired. In one embodiment, candidate chelators, bases and enhancers may be ranked by FDA approval for oral consumption. Agents with a score of “1” may have approval for the desired indication and a score of “3” may not have approval or may not be approved for the desired indication. The resultant overall score may be tabulated and may be used to facilitate selection.
Microbes were cultured in growth media and plated at 10^3 CFU/well in a 96 well microtiter plate and cultured for 24 h. Wells were then treated with 10-50 μL of media only as control or with media+chelator agents, base agents, acid agents, neutral agents or enhancer agents for 30 min at RT followed by repleation in […] of fresh RPMI pH 7.2. Plates were then incubated for an additional 48-72 h prior to harvest. Wells were washed 3× in PBS and residual biofilm was stained using crystal violet. Wells were washed 4× in PBS and the amount of retained stain was measured. […] Synergistic effects were evaluated and numerous compounds were examined for their ability to synergistically act with chelators to inhibit biofilm formation (examples of some test compounds analyzed for synergy with chelators are presented in Table 2).
Screens of base components to use in compositions comprising chelator were performed. Briefly, the pH of S. mutans cultures were measured 24 and 48 hr post administration of chelator and candidate base components. Combinations of chelator, base and enhancer agents were also evaluated for affecting metabolic activity and/or metabolism of S. mutans (FIG. 3).
For the molecule `NCCCC[C@H](N)C(=O)O` [Lysine], the “POTENCY (score 1-3)” value turned out to be 2.

Staying with this experiment, now noted: base agents that may be used in combination with chelators.
With `Cc1ncc(CO)c(CO)c1O` [Pyridoxine], the “POTENCY (score 1-3)” value stood at 1.

For the molecule `O=P([O-])([O-])O.[Ca+2]` [Dibasic calcium phosphate], the “POTENCY (score 1-3)” value amounted to 3. On the same count and under the same terms, in the case of `NC(CO)(CO)CO` [Tris amine] it was 2. The same measure, in the same setting: in the case of `OC[C@H]1O[C@H](O[C@H]2[C@H](O)[C@@H](O)[C@H](O)O[C@@H]2CO)[C@H](O)[C@@H](O)[C@@H]1O` [D-maltose] it was 1. On the same count and under the same terms, for protamine sulfate the value was 2; for `NC(N)=Nc1nc(CSCCC(N)=NS(N)(=O)=O)cs1` [Famotidine, reference compound], 1; for Lysozyme, 1.

Turning to `O=c1cc[nH]c(=O)[nH]1` [Uracil], the “POTENCY (score 1-3)” value came to 3. On the same count and under the same terms, for `Cc1ncc(COP(=O)(O)O)c(C=O)c1O` [Pyridoxal-5-phosphate] the value was 1.

As for `OCN(CO)CO` [Tris (hydroxymethyl) amine], the “POTENCY (score 1-3)” value came out at 2. On the same count and under the same terms, in the case of `CNC(=C[N+](=O)[O-])NCCSCc1ccc(CN(C)C)o1` [Remitidine, reference compound] it was 1; in that of Vitamin K, 1. Same read-out and setting: for Vitamin B12 the value was 2; for `Cc1ncc(CO)c(CN)c1O` [Pyridoxamine], 1.

Still in this experiment, the particulars now being: chelators that may be used in combination with base agents.
With `Oc1ccc(C=Cc2cc(O)cc(O)c2)cc1` [Resveratrol], the “POTENCY (score 1-3)” value is on record as 2.

Turning to `O=S(=O)(O)CC(S)CS` (centres unmarked) [DMPS], the “POTENCY (score 1-3)” value is listed as 1. Same read-out and setting: in the case of `O=c1c(O)c(-c2ccc(O)c(O)c2)oc2cc(O)cc(O)c12` [Quercetin] it was 1; in that of `O=C(OC[C@H]1O[C@@H](OC(=O)c2cc(O)c(O)c(OC(=O)c3cc(O)c(O)c(O)c3)c2)[C@H](OC(=O)c2cc(O)c(O)c(OC(=O)c3cc(O)c(O)c(O)c3)c2)[C@@H](OC(=O)c2cc(O)c(O)c(OC(=O)c3cc(O)c(O)c(O)c3)c2)[C@@H]1OC(=O)c1cc(O)c(O)c(OC(=O)c2cc(O)c(O)c(O)c2)c1)c1cc(O)c(O)c(OC(=O)c2cc(O)c(O)c(O)c2)c1` [Tannic acid], 1; in that of Anachelins, 1. The same measure, in the same setting: in the case of Ferrioxamines it was 1; in that of `O=P(O)(O)O[C@H]1[C@H](OP(=O)(O)O)[C@@H](OP(=O)(O)O)[C@H](OP(=O)(O)O)[C@@H](OP(=O)(O)O)[C@H]1OP(=O)(O)O` [Inositol hexaphosphate], 2; in that of `O=C(O[C@@H]1Cc2c(O)cc(O)cc2O[C@@H]1c1cc(O)c(O)c(O)c1)c1cc(O)c(O)c(O)c1` [EGCG], 1. On the same count and under the same terms, in the case of Cyclodextrins it was 1; in that of `COc1cc(/C=C/C(=O)CC(=O)/C=C/c2ccc(O)c(OC)c2)ccc1O` [Curcumin], 2; in that of `CC(=O)N(O)CCC[C@@H]1NC(=O)[C@H](CCCN(O)C(C)=O)NC1=O` [Rhodotorulic acid], 1. As for Chlorophylls, the “POTENCY (score 1-3)” value was 1.

As for `O=C(O)[C@@H](S)[C@@H](S)C(=O)O` [DMSA], the “POTENCY (score 1-3)” value stood at 1.

In the case of Deferoxamines, the “POTENCY (score 1-3)” value is on record as 1. The same measure, in the same setting: for `O=C(O)CN(CCOCCOCCN(CC(=O)O)CC(=O)O)CC(=O)O` [EGTA] the value was 1; for `CC(=O)N(O)CCCCCNC(=O)CCC(=O)N(O)CCCCCNC(=O)CCC(=O)N(O)CCCCCN` [Deferasiroxamine B], 1.

On to Vitamin B12, for which the “POTENCY (score 1-3)” value is listed as 1.
